Earlier results on nine molecules are cited in US10399716B2, “Personal care compositions and hangers” (The Procter & Gamble Company, priority 2014, dated 2019).

On to `OCCOc1ccccc1` [Phenoxyethanol], for which the “Log (water Solubility in mol/L)” value is listed as −0.64 log mol/L.
As to `CCOC(=O)c1ccc(O)cc1` [ethyl paraben], the “Log (water Solubility in mol/L)” value was −1.91 log mol/L.
With `C/C=C/C=C/C(=O)O` [sorbic acid], the “Log (water Solubility in mol/L)” value was −0.33 log mol/L.
For `C=CCCCCCCCCC(=O)O` [Undecylenic Acid], the “Log (water Solubility in mol/L)” value is recorded as −3.15 log mol/L.
On to `CCCCCCC(O)CO` (stereo not drawn) [caprylyl glycol], for which the “Log (water Solubility in mol/L)” value is recorded as −3.08 log mol/L.
As for `Oc1cc(Cl)ccc1Oc1ccc(Cl)cc1Cl` [Triclosan], the “Log (water Solubility in mol/L)” value is −2.46 log mol/L.
Regarding `OCCc1ccccc1` [phenethyl alcohol], the “Log (water Solubility in mol/L)” value is on record as −0.83 log mol/L.
In the case of `O=C(O)c1ccccc1O` [Salicylic acid], the “Log (water Solubility in mol/L)” value is listed as −1.41 log mol/L.
On to `OCc1ccccc1` [benzyl Alcohol], for which the “Log (water Solubility in mol/L)” value is −0.47 log mol/L.
